The assay concerns the target AMPK α1β1γ1 (Homo sapiens (Human), UniProt Q13131+Q9Y478). Put plainly: in vitro AMPK activation assay (ADP Glo Luminescence Kinase test). It is filed as biochemical. The following applies: for Emax: maximal achievable activation in the tested concentration range, percent of control max (positive control without test substance = 100%), read-out: AMPK α1β1γ1 PoCmax; for EC50: recombinant human AMPK alpha1/beta1/gamma1, ADP-Glo luminescence read-out. As to the method:
Recombinant human AMPK (containing subunits alpha1, beta1 and gamma1) was obtained from a baculovirus expression system. The 3 subunits were expressed together, affinity-purified via a GST-tag fused to the alpha 1 subunit and deep-frozen in storage buffer (50 mM Tris-HCl pH 8, 300 mM NaCl, 1 mM TCEP and 10% glycerol) at −80° C. until use. The activity of the AMPK protein was determined using the ADP Glo® Luminescence Kinase test (Promega; V9103X). In this homogeneous test the amount of ADP formed by the kinase reaction is quantified by a luciferin-luciferase reaction using luminescence as read-out. The luminescence signal obtained correlates with the amount of ADP resulting from the kinase reaction and thus correlates with the activity of the protein kinase.
The test compounds were dissolved in 100% DMSO at a concentration of 10 mM and in a first step diluted in DMSO to a concentration of 5 mM, followed by serial dilution steps in 100% DMSO. Dilution factor and number of dilution steps may vary. Typically 8 different concentrations by 1:5 dilutions were prepared, further dilutions of the substances were carried out with test buffer (20 mM Hepes (pH 7.0), 15 mM MgCl2, 0.025% BSA, 0.01% Brij 35) until a concentration was reached which was 5 times above the final test concentration. 2 μl aliquots of these dilutions were transferred into a 384-well Optiplate (Perkin Elmer, #6007290). Typically the start concentration for serial dilutions in the assay is 10 μM. Typically AMPK was diluted to 25 μg/ml in the test buffer and 4 μl of this dilution were used in the kinase test (final concentration of AMPK is 10 μg/ml in a total volume of 10 μl for the kinase reaction). Kinase concentrations may vary depending on activity of the preparation batches. After 10 minutes incubation at room temperature 4 μl of a mix containing 2.5 μM substrate (H-His-Met-Arg-Ser-Ala-Met-Ser-Gly-Leu-His-Leu-Val-Lys-Arg-Arg-OH Trifluoroacetate salt/HMRSAMSGLHLVKRR from Bachem, Cat. No. H5938) and 75 μM ATP in test buffer were added to each well and the incubation was continued for 60 minutes at room temperature.
Positive controls are the reaction mixtures that contain no test substance; negative controls (blanks) are reaction mixtures that contain no AMPK enzyme.
After 60 minutes, 10 μl ADP-Glo® solution (ADP-Glo Reagent #V912B Promega) (heated to room temperature) were added to each well and incubation was continued for 40 minutes. Then 20 μl Kinase detection mix (Detection Buffer #V913B Promega; Kinase Detection Substrate #V914B Promega) were added and incubated for additional 40 minutes at room temperature.
All incubations were done in sealed plates in the dark.
The plates were read with an Envision Luminescence Reader (Perkin-Elmer).
Data Evaluation and Calculation:
The output file of the reader is a csv file that contains the well number and measured RLU. For data evaluation and calculation, the measurement of the negative control was set as 0% control and the measurement of the positive control was set as 100% control. Based on these values the % value for the measurement of each substance concentration was calculated using Assay Explorer software (Accelrys). Activating compounds achieve % of control values above 100%. The IC50 values were calculated from the % control values using Assay Explorer software. Calculation: [y=(a−d)/(1+(x/c)^b)+d], a=low value, d=high value; x=conc M; c=IC50 M; b=hill; y=% ctrl. The maximal achievable activation of a compound in the tested concentration range is reported as percent of control max (PoCmax).
For orientation: ADP-Glo turns the ADP formed in a reaction into a luminescent signal.

The EC50 is the concentration that produces a half-maximal response.

AMPK α1β1γ1, sequence (Q13131 whole entry, the tested form may be a part): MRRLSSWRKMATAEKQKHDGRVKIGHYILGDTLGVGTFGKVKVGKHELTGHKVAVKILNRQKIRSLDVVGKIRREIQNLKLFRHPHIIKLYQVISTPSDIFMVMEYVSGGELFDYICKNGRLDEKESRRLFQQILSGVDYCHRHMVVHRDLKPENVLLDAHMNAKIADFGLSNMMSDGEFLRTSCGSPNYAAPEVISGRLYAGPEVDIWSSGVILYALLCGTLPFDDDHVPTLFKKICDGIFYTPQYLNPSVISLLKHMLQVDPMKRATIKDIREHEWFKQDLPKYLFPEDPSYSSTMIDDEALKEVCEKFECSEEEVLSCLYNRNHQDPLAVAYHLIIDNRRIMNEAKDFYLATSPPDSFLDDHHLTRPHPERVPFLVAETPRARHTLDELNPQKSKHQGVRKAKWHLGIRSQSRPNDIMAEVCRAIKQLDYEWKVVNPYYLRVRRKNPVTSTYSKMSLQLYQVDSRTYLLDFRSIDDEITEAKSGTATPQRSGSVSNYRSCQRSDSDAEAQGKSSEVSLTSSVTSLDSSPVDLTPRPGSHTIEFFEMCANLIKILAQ
AMPK α1β1γ1, sequence (Q9Y478 whole entry, the tested form may be a part): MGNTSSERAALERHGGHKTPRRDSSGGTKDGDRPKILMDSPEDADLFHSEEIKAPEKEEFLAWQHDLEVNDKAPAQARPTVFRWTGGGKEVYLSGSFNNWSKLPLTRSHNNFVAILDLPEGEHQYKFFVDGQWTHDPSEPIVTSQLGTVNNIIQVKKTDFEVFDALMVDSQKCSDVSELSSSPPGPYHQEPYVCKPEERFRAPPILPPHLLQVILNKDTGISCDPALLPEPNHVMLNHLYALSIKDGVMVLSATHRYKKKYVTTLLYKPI
AMPK α1β1γ1, sequence (P54619 whole entry partner, the tested form may be a part): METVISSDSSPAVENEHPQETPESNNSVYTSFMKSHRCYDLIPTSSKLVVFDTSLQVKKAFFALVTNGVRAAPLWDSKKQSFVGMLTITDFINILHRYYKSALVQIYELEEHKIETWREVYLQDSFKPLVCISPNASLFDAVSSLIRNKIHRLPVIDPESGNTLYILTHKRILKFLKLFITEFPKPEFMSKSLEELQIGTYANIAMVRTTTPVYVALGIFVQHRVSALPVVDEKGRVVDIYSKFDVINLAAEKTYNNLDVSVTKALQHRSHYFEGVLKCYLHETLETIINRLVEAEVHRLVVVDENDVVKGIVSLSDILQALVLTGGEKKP

In the case of `CS(C)(=O)=Nc1ccc(-c2cc(F)c(-c3nc4nc(O[C@@H]5CO[C@H]6[C@@H]5OC[C@H]6O)[nH]c4cc3F)c(F)c2)cc1` [Example 16, ({4-[4-(2-{[(3R,3aR,6R,6aR)-6-Hydroxy-hexahydrofuro[3,2-b]furan-3-yl]oxy}-6-fluoro-1H-imidazo[4,5-b]pyridin-5-yl)-3,5-difluorophenyl]phenyl}imino)dimethyl-λ^6-sulfanone], the Emax turned out to be 475% and the concentration for a half-maximal effect (EC50) is 74 nM.

In the case of `CS(C)(=O)=Nc1ccc(-c2cc(F)c(-c3nc4nc(O[C@@H]5CO[C@H]6[C@@H]5OC[C@H]6O)[nH]c4cc3Cl)c(F)c2)cc1` [Example 17, ({4-[4-(2-{[(3R,3aR,6R,6aR)-6-Hydroxy-hexahydrofuro[3,2-b]furan-3-yl]oxy}-6-chloro-1H-imidazo[4,5-b]pyridin-5-yl)-3,5-difluorophenyl]phenyl}imino)dimethyl-λ^6-sulfanone], the Emax turned out to be 475% and the concentration for a half-maximal effect (EC50) is 84 nM.
